Assay results as given in ChEMBL document CHEMBL4808179 (Bioorg Med Chem Lett, 2021).
In brackets after ≈: the same amount, converted by molar mass.

Tests used:
Enterococcus faecium [1] = experiment: Antibacterial activity against vancomycin resistant Enterococcus faecium Van M HS-08267 assessed as inhibition of bacterial growth; type: functional
Staphylococcus aureus [2] = experiment: Antibacterial activity against vancomycin-intermediate Staphylococcus aureus Mu50 assessed as bacterial growth inhibition; type: functional
Enterococcus faecium [3] = experiment: Potency index, ratio of Vancomycin MIC to test compound MIC for antibacterial activity against vancomycin resistant Enterococcus faecium Van B V(R) assessed as inhibition of bacterial growth; type: functional
Staphylococcus aureus [4] = experiment: Potency index, ratio of Vancomycin MIC to test compound MIC for antibacterial activity against methicillin-susceptible Staphylococcus aureus Newman assessed as bacterial growth inhibition; type: functional
Enterococcus faecium [5] = experiment: Potency index, ratio of Vancomycin MIC to test compound MIC for antibacterial activity against vancomycin resistant Enterococcus faecium Van A HS-06188 assessed as inhibition of bacterial growth; type: functional
Staphylococcus aureus [6] = experiment: Antibacterial activity against methicillin-resistant Staphylococcus aureus HS-663 assessed as bacterial growth inhibition; type: functional
Staphylococcus aureus [7] = experiment: Antibacterial activity against methicillin-resistant Staphylococcus aureus USA300 assessed as bacterial growth inhibition; type: functional
Enterococcus faecium [8] = experiment: Antibacterial activity against vancomycin resistant Enterococcus faecium Van A HS-06188 assessed as inhibition of bacterial growth; type: functional
Acinetobacter baumannii = experiment: Antibacterial activity against Acinetobacter baumannii assessed as bacterial growth inhibition; type: functional
Staphylococcus aureus [9] = experiment: Potency index, ratio of Vancomycin MIC to test compound MIC for antibacterial activity against vancomycin-intermediate Staphylococcus aureus Mu50 assessed as bacterial growth inhibition; type: functional
Enterococcus faecium [10] = experiment: Potency index, ratio of Vancomycin MIC to test compound MIC for antibacterial activity against vancomycin resistant Enterococcus faecium Van M HS-0847 assessed as inhibition of bacterial growth; type: functional
Enterococcus faecium [11] = experiment: Antibacterial activity against vancomycin resistant Enterococcus faecium Van M HS-0847 assessed as inhibition of bacterial growth; type: functional
Staphylococcus aureus [12] = experiment: Antibacterial activity against methicillin-susceptible Staphylococcus aureus Newman assessed as bacterial growth inhibition; type: functional
Enterococcus faecium [13] = experiment: Antibacterial activity against vancomycin resistant Enterococcus faecium Van B V(R) assessed as inhibition of bacterial growth; type: functional
Enterococcus faecium [14] = experiment: Antibacterial activity against vancomycin resistant Enterococcus faecium Van A HS-0649 assessed as inhibition of bacterial growth; type: functional
Enterococcus faecium [15] = experiment: Potency index, ratio of Vancomycin MIC to test compound MIC for antibacterial activity against vancomycin resistant Enterococcus faecium Van M HS-08267 assessed as inhibition of bacterial growth; type: functional
Escherichia coli = experiment: Antibacterial activity against Escherichia coli AB1157 assessed as bacterial growth inhibition; type: functional
L02 = experiment: Cytotoxicity against human L02 cells assessed as reduction in cell viability < 6.25 uM; type: cell-based
HEK-293T = experiment: Cytotoxicity against human HEK293T cells assessed as reduction in cell viability upto 25 uM; type: cell-based

Structure (SMILES)	MIC (Enterococcus faecium [1]) [µg/mL]	MIC (Staphylococcus aureus [2]) [µg/mL]	Ratio (Enterococcus faecium [3])	Ratio (Staphylococcus aureus [4])	Ratio (Enterococcus faecium [5])	MIC (Staphylococcus aureus [6]) [µg/mL]	MIC (Staphylococcus aureus [7]) [µg/mL]	MIC (Enterococcus faecium [8]) [µg/mL]	MIC (Acinetobacter baumannii) [µg/mL]	Ratio (Staphylococcus aureus [9])	Ratio (Enterococcus faecium [10])	MIC (Enterococcus faecium [11]) [µg/mL]	MIC (Staphylococcus aureus [12]) [µg/mL]	MIC (Enterococcus faecium [13]) [µg/mL]	MIC (Enterococcus faecium [14]) [µg/mL]	Ratio (Enterococcus faecium [15])	MIC (Escherichia coli) [µg/mL]	Activity (L02)	Activity (HEK-293T)
CN[C@H](CC(C)C)C(=O)N[C@H]1C(=O)N[C@@H](CC(N)=O)C(=O)N[C@H]2C(=O)N[C@H]3C(=O)N[C@H](C(=O)N[C@H](C(=O)NNCc4ccc(-c5ccccc5)cc4)c4cc(O)cc(O)c4-c4cc3ccc4O)[C@H](O)c3ccc(c(Cl)c3)Oc3cc2cc(c3O[C@@H]2O[C@H](CO)[C@@H](O)[C@H](O)[C@H]2O[C@H]2C[C@](C)(N)[C@H](O)[C@H](C)O2)Oc2ccc(cc2Cl)[C@H]1O	4 (≈ 2.45 µM)	1 (≈ 0.614 µM)	8	32	8	< 0.0625	0.5 (≈ 0.307 µM)	8 (≈ 4.91 µM)	64 (≈ 39.3 µM)	2	8	8 (≈ 4.91 µM)	≤ 0.0625	4 (≈ 2.45 µM)	8 (≈ 4.91 µM)	8	64 (≈ 39.3 µM)	–	–
CN[C@H](CC(C)C)C(=O)N[C@H]1C(=O)N[C@@H](CC(N)=O)C(=O)N[C@H]2C(=O)N[C@H]3C(=O)N[C@H](C(=O)N[C@H](C(=O)N/N=C/c4ccc(-c5ccc(Cl)cc5)cc4)c4cc(O)cc(O)c4-c4cc3ccc4O)[C@H](O)c3ccc(c(Cl)c3)Oc3cc2cc(c3O[C@@H]2O[C@H](CO)[C@@H](O)[C@H](O)[C@H]2O[C@H]2C[C@](C)(N)[C@H](O)[C@H](C)O2)Oc2ccc(cc2Cl)[C@H]1O	4 (≈ 2.41 µM)	2 (≈ 1.2 µM)	8	4	8	0.0625 (≈ 0.0376 µM)	0.5 (≈ 0.301 µM)	16 (≈ 9.63 µM)	> 128	2	8	4 (≈ 2.41 µM)	0.5 (≈ 0.301 µM)	8 (≈ 4.81 µM)	4 (≈ 2.41 µM)	8	128 (≈ 77 µM)	–	–
CN[C@H](CC(C)C)C(=O)N[C@H]1C(=O)N[C@@H](CC(N)=O)C(=O)N[C@H]2C(=O)N[C@H]3C(=O)N[C@H](C(=O)N[C@H](C(=O)NNCc4ccc(-c5ccc(Cl)cc5)cc4)c4cc(O)cc(O)c4-c4cc3ccc4O)[C@H](O)c3ccc(c(Cl)c3)Oc3cc2cc(c3O[C@@H]2O[C@H](CO)[C@@H](O)[C@H](O)[C@H]2O[C@H]2C[C@](C)(N)[C@H](O)[C@H](C)O2)Oc2ccc(cc2Cl)[C@H]1O	4 (≈ 2.4 µM)	4 (≈ 2.4 µM)	8	32	8	0.0625 (≈ 0.0376 µM)	1 (≈ 0.601 µM)	8 (≈ 4.81 µM)	128 (≈ 76.9 µM)	2	8	8 (≈ 4.81 µM)	≤ 0.0625	4 (≈ 2.4 µM)	16 (≈ 9.62 µM)	8	128 (≈ 76.9 µM)	Toxic	Non-Toxic
